Tests used:
[1] = in vivo; settings: rat, 1 mg/kg
From the text: A dosing solution of DDAVP in water, C971P, LPC or C971P/LPC was directly injected into a 10-cm segment of rat colon. Blood was collected over a 2 hr period to assess the extent of systemic absorption from the various formulations.

[2] = in vitro; settings: human
[3] = test system: Calu-3 cells; assay: Acute cytotoxicity assay (Alamar Blue) in Calu-3 cells; type: cell-based, human
From the text: FIG. 2 depicts an Alamar Blue Assay—Black bar indicates the % of the cell survival after 2 hrs treatment of LPC at 0-0.25%; gray bar indicates the combination of LPC with 0.5% of C971P.
This assay is based on the ability of live cells to enzymatically reduce Alamar blue dye which indicates the relative percentage of cells that survive the exposure to the various treatments. Calu-3 cells exposed to buffer for 2 hr were used as the positive control with 100% cell survival.

[4] = test system: Calu-3 cells; assay: Permeability (Papp) of DDAVP across Calu-3 cell monolayers on Transwell filters; settings: for additive permeability enhancement or change in epithelial resistance in the presence of Carbopol polymers (in words): enhancer with Carbopol polymers (Example 11)
[5] = test system: Calu-3 cells; assay: TEER measurement (cell integrity and reversibility) in Calu-3 cells; type: cell-based, human
From the text: The asterisk (delete scatters with) (*) represent (delete marker present) those samples where TEER recovered to the original level within 12 hrs after washout of the treatment.
Transepithelial electrical resistance (TEER) measures the integrity of the epithelial barrier. […] Return of the TEER values to initial levels indicates recovery to baseline barrier properties. TEER measurements were done in confluent highly resistant Calu-3 cells cultured in Transwell filters with handheld STX-2 electrodes connected to EVOM Voltohmmeter. […] After the removal of apical treatment, TEER recovered to the original values.

[6] = Intra-nasal DADLE absorption in rabbits; type: in vivo; settings: DADLE 1 mg/kg via syringe microsprayer in rabbit nostril
From the text: Intra-nasal delivery of the model pentapepdide DADLE in water, C971P, LPC or C971P/LPC formulation was studied in rabbits. […] The C971P/LPC formulation enhanced DADLE absorption by >50% compared to LPC alone.

NC(=O)CC[C@@H]1NC(=O)[C@H](Cc2ccccc2)NC(=O)[C@H](Cc2ccc(O)cc2)NC(=O)CCSSC[C@@H](C(=O)N2CCC[C@H]2C(=O)N[C@H](CCCN=C(N)N)C(=O)NCC(N)=O)NC(=O)[C@H](CC(N)=O)NC1=O [DDAVP, 1 deamino-8-D-arginin-vasopressin]
bioavailability [1]: 0.1 ± 0.1%
Papp [2]: 0.4 ± 0.03 nm/s

CCCCCCCCCC(=O)[O-].[Na+] [sodium caprate]
effect of Carbopol 971P on acute cytotoxicity of the enhancer (in words) ([3]; enhancer combined with Carbopol 971P, Alamar Blue, Calu-3 cells): failed to reduce the acute cytotoxicity
additive permeability enhancement or change in epithelial resistance in the presence of Carbopol polymers (in words) [4]: do not show additive permeability enhancement advantage or change in epithelial resistance

L-α-lysophosphatidylcholine [LPC]
cell survival ([3]; 0.05% LPC alone, 2 hr, buffer control = 100%): About 82%
cell survival ([3]; 0.05% LPC with C971P (0.5%) in the formulation, 2 hr): 95%
cell survival ([3]; 0.1% LPC alone, 2 hr): 41%
cell survival ([3]; 0.1% LPC in the presence of C971P (0.5%), 2 hr): > 90%
cell survival (in words) ([3]; LPC alone 0-0.25%, 2 hr): dose-dependent reduction in survival
TEER recovery after removal of treatment (in words) ([5]; 0.05% LPC with C971P also present): recovered
TEER change (in words) ([5]; LPC alone, 2 hr treatment): dramatic drop in TEER
extent of TEER drop (in words) ([5]; LPC with C971P present in the formulation, 2 hr treatment): significantly reduced
DADLE exposure, times higher than water control [6]: 2.4 times
DDAVP Papp increase compared with 0.5% C971P alone ([4]; LPC 0.01-0.25% combined with 0.5% C971P, dose-dependent, Calu-3 cells): up to 32 fold

Phosphatidylcholine [Lecithin]
TEER after 2 hr (% initial) ([5]; Lecithin 1 mM): No change
TEER after 2 hr (% initial) ([5]; Lecithin 2 mM): No change
TEER after 2 hr (% initial) ([5]; Lecithin 5 mM): No change
DDAVP permeability enhancement or TEER drop (in words) ([4]; Carbopol added along with phosphatidylcholine): no significant enhancement in permeability or drop in TEER
DDAVP Permeability ([4]; Lecithin 1 mM): 0.45 ± 0.03 nm/s
DDAVP Permeability ([4]; Lecithin 2 mM): 0.44 ± 0.03 nm/s
DDAVP Permeability ([4]; Lecithin 5 mM): 0.44 ± 0.04 nm/s
additive permeability enhancement or change in epithelial resistance in the presence of Carbopol polymers (in words) [4]: do not show additive permeability enhancement advantage or change in epithelial resistance
DDAVP permeability enhancement or TEER drop (in words) ([4]; phosphatidylcholine alone, Calu-3 cells): failed to show any measurable enhancement or TEER drop

Reference: patent US20050244502A1, “Composition for enhancing absorption of a drug and method” (priority 2004, published 2005)
